Patent publication US4730063A, “Alkali metal 2,5-dihydro-3-ethoxycarbonyl-2-[(substituted phenyl)amino]-4-furanyloxides” (Pennwalt Corportion, priority 1986, dated 1988)

System: carrageenan-induced rat paw edema
Experiment: carrageenan-induced rat paw edema assay
Type: in vivo
Conditions: oral doses of 50 mg/kg

Structure (SMILES)	inhibition of edema [%]
CCOC(=O)C1=C(O)COC1=Nc1ccccc1 [Example 1, potassium 2,5-dihydro-3-ethoxycarbonyl-2-(phenylimino)-4-furanyloxide]	31
CCOC(=O)C1=C(O)COC1=Nc1cccc([N+](=O)[O-])c1 [Example 4, potassium 2,5-dihydro-3-ethoxycarbonyl-2-[(3-nitrophenyl)imino]-4-furanyloxide]	28.3
